Measured values reported in patent US20250186541A1, “DLL3 TARGETING PEPTIDES AND CONSTRUCTS THEREOF” (MARIANA ONCOLOGY INC., priority 2023, published 2025).
Bridge positions count the residues as written; N and C are the ends. Square brackets hold non-standard residues; d marks the D form. Peptide text beside a SMILES is read from it. * marks the point of attachment. DOTA = O=C(O)CN1CCN(CC(=O)O)CCN(CC(=O)*)CCN(CC(=O)O)CC1; Trp(7-aza) = N[C@@H](Cc1c[nH]c2ncccc12)C(=O)O; Pro(trans-4-F) = O=C(O)[C@@H]1C[C@@H](F)CN1; Bip = N[C@@H](Cc1ccc(-c2ccccc2)cc1)C(=O)O; Pro(cis-4-F) = O=C(O)[C@@H]1C[C@H](F)CN1; 1Nal = N[C@@H](Cc1cccc2ccccc12)C(=O)O; 2Nal = N[C@@H](Cc1ccc2ccccc2c1)C(=O)O; Hyp = O=C(O)[C@@H]1C[C@@H](O)CN1; αMeD = C[C@](N)(CC(=O)O)C(=O)O; Pip = O=C(O)[C@@H]1CCCCN1; hSer = N[C@@H](CCO)C(=O)O; Nle = CCCC[C@H](N)C(=O)O; Ahx = NCCCCCC(=O)O

Biological target: T1, human DLL3 (Homo sapiens, UniProt Q9NYJ7)
T1 construct: biotin (biotinylated)
T1 sequence (Q9NYJ7 27-618): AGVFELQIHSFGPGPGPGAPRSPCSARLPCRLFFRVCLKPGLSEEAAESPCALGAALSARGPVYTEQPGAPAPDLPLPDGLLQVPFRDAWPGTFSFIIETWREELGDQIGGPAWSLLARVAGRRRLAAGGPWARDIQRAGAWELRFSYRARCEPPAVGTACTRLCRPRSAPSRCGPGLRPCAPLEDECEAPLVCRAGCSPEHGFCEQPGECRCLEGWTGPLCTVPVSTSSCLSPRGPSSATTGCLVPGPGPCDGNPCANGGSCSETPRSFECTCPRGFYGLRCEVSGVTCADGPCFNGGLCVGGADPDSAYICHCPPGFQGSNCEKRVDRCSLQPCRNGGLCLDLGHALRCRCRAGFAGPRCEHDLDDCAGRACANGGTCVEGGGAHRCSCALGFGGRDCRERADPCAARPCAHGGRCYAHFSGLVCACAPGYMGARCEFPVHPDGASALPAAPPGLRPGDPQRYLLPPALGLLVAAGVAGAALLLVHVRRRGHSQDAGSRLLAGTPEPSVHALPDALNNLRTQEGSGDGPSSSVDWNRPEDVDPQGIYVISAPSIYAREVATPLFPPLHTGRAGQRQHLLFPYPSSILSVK
Test: Affinity determination by Surface Plasmon Resonance (SPR), Biacore, 1:1 binding model
Conditions: biotinylated human DLL3 on streptavidin chip, 25° C.; NB = nonbinding
Method in brief: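 SPR with biotinylated human DLL3 captured on a streptavidin chip, with a reference surface subtracted. Samples were injected at several concentrations at 100 μL/min in phosphate buffer with 137 mM NaCl, 2.7 mM KCl, 0.05% P20 and 2% DMSO. Kinetic and affinity constants came from a 1:1 binding fit.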

Kd | SMILES
> 100 nM | CC(C)C[C@@H]1NC(=O)[C@H](Cc2c[nH]c3ccccc23)NC(=O)[C@@H](NC(=O)[C@H](CC(=O)O)NC(=O)[C@H](CO)NC(=O)CCCCCNC(=O)CN2CCN(CC(=O)O)CCN(CC(=O)O)CCN(CC(=O)O)CC2)CSSC[C@@H](C(=O)N2CCC[C@H]2C(=O)N[C@@H](Cc2cccc3ccccc23)C(=O)N[C@@H](CC(=O)O)C(N)=O)NC(=O)[C@H](CC(N)=O)NC(=O)[C@H](Cc2c[nH]c3ccccc23)NC(=O)[C@H](CCC(N)=O)NC1=O [compound 39, DOTA-Ahx-S-D-C(3)-W-L-Q-W-N-C(3)-P-(1Nal)-D-CONH2] ({DOTA-Ahx}-SDCWLQWNCP[1Nal]D-NH2; disulfide 3-9)
> 300 nM | CC(C)C[C@@H]1NC(=O)[C@H](Cc2c[nH]c3ccccc23)NC(=O)[C@@H](NC(=O)[C@H](CC(=O)O)NC(=O)[C@H](CO)NC(=O)CCCCCNC(=O)CN2CCN(CC(=O)O)CCN(CC(=O)O)CCN(CC(=O)O)CC2)CSSC[C@@H](C(=O)N2CCC[C@H]2C(=O)N[C@@H](Cc2ccc3ccccc3c2)C(=O)N[C@@H](CC(=O)O)C(N)=O)NC(=O)[C@H](CC(N)=O)NC(=O)[C@H](Cc2c[nH]c3ccccc23)NC(=O)[C@H](CCC(N)=O)NC1=O [compound 40, DOTA-Ahx-S-D-C(3)-W-L-Q-W-N-C(3)-P-(2Nal)-D-CONH2] ({DOTA-Ahx}-SDCWLQWNCP[2Nal]D-NH2; disulfide 3-9)
10 nM | CSCC[C@H](NC(C)=O)C(=O)N[C@@H](CO)C(=O)N[C@@H](CC(=O)O)C(=O)N[C@H]1CSSC[C@@H](C(=O)N2C[C@H](F)C[C@H]2C(=O)N[C@@H](Cc2ccccc2)C(=O)N[C@@H](CC(=O)O)C(=O)N[C@H](CCCCNC(=O)CN2CCN(CC(=O)O)CCN(CC(=O)O)CCN(CC(=O)O)CC2)C(N)=O)NC(=O)[C@H](CC(N)=O)NC(=O)[C@H](Cc2c[nH]c3ccccc23)NC(=O)[C@H](CCC(N)=O)NC(=O)[C@H](CC(C)C)NC(=O)[C@H](Cc2c[nH]c3ccccc23)NC1=O [compound 42, Ac-M-S-D-C(3)-W-L-Q-W-N-C(3)-(trans4Fluoro-P)-F-D-D-Lys(DOTA)-CONH2] (Ac-MSDCWLQWNC[Pro(trans-4-F)]FD[dK](DOTA)-NH2; disulfide 4-10)
28 nM | CSCC[C@H](NC(C)=O)C(=O)N[C@@H](CO)C(=O)N[C@@H](CC(=O)O)C(=O)N[C@H]1CSSC[C@@H](C(=O)N2C[C@@H](F)C[C@H]2C(=O)N[C@@H](Cc2ccccc2)C(=O)N[C@@H](CC(=O)O)C(=O)N[C@H](CCCCNC(=O)CN2CCN(CC(=O)O)CCN(CC(=O)O)CCN(CC(=O)O)CC2)C(N)=O)NC(=O)[C@H](CC(N)=O)NC(=O)[C@H](Cc2c[nH]c3ccccc23)NC(=O)[C@H](CCC(N)=O)NC(=O)[C@H](CC(C)C)NC(=O)[C@H](Cc2c[nH]c3ccccc23)NC1=O [compound 43, Ac-M-S-D-C(3)-W-L-Q-W-N-C(3)-(cis4Fluoro-P)-F-D-D-Lys(DOTA)-CONH2] (Ac-MSDCWLQWNC[Pro(cis-4-F)]FD[dK](DOTA)-NH2; disulfide 4-10)
26 nM | CSCC[C@H](NC(C)=O)C(=O)N[C@@H](CO)C(=O)N[C@@H](CC(=O)O)C(=O)N[C@H]1CSSC[C@@H](C(=O)N2C[C@H](O)C[C@H]2C(=O)N[C@@H](Cc2ccccc2)C(=O)N[C@@H](CC(=O)O)C(=O)N[C@H](CCCCNC(=O)CN2CCN(CC(=O)O)CCN(CC(=O)O)CCN(CC(=O)O)CC2)C(N)=O)NC(=O)[C@H](CC(N)=O)NC(=O)[C@H](Cc2c[nH]c3ccccc23)NC(=O)[C@H](CCC(N)=O)NC(=O)[C@H](CC(C)C)NC(=O)[C@H](Cc2c[nH]c3ccccc23)NC1=O [compound 44, Ac-M-S-D-C(3)-W-L-Q-W-N-C(3)-(trans4OH-P)-F-D-D-Lys(DOTA)-CONH2] (Ac-MSDCWLQWNC[Hyp]FD[dK](DOTA)-NH2; disulfide 4-10)
26 nM | CSCC[C@H](NC(C)=O)C(=O)N[C@@H](CO)C(=O)N[C@@H](CC(=O)O)C(=O)N[C@H]1CSSC[C@@H](C(=O)N2CCCC[C@H]2C(=O)N[C@@H](Cc2ccccc2)C(=O)N[C@@H](CC(=O)O)C(=O)N[C@H](CCCCNC(=O)CN2CCN(CC(=O)O)CCN(CC(=O)O)CCN(CC(=O)O)CC2)C(N)=O)NC(=O)[C@H](CC(N)=O)NC(=O)[C@H](Cc2c[nH]c3ccccc23)NC(=O)[C@H](CCC(N)=O)NC(=O)[C@H](CC(C)C)NC(=O)[C@H](Cc2c[nH]c3ccccc23)NC1=O [compound 47, Ac-M-S-D-C(3)-W-L-Q-W-N-C(3)-(Pip)-F-D-D-Lys(DOTA)-CONH2] (Ac-MSDCWLQWNC[Pip]FD[dK](DOTA)-NH2; disulfide 4-10)
> 300 nM | CSCC[C@H](NC(C)=O)C(=O)N[C@@H](CO)C(=O)N[C@@H](CC(=O)O)C(=O)N[C@H]1CSSC[C@@H](C(=O)N2CCC[C@H]2C(=O)N[C@@H](Cc2ccccc2)C(=O)N[C@@](C)(CC(=O)O)C(=O)N[C@H](CCCCNC(=O)CN2CCN(CC(=O)O)CCN(CC(=O)O)CCN(CC(=O)O)CC2)C(N)=O)NC(=O)[C@H](CC(N)=O)NC(=O)[C@H](Cc2c[nH]c3ccccc23)NC(=O)[C@H](CCC(N)=O)NC(=O)[C@H](CC(C)C)NC(=O)[C@H](Cc2c[nH]c3ccccc23)NC1=O [compound 53, Ac-M-S-D-C(3)-W-L-Q-W-N-C(3)-P-F-(aMeD)-D-Lys(DOTA)-CONH2] (Ac-MSDCWLQWNCPF[αMeD][dK](DOTA)-NH2; disulfide 4-10)
> 300 nM | CSCC[C@H](NC(C)=O)C(=O)N[C@@H](CO)C(=O)N[C@@H](CC(=O)O)C(=O)N[C@H]1CSSC[C@@H](C(=O)N2CCC[C@H]2C(=O)N[C@@H](Cc2ccccc2)C(=O)N[C@@H](CCO)C(=O)N[C@H](CCCCNC(=O)CN2CCN(CC(=O)O)CCN(CC(=O)O)CCN(CC(=O)O)CC2)C(N)=O)NC(=O)[C@H](CC(N)=O)NC(=O)[C@H](Cc2c[nH]c3ccccc23)NC(=O)[C@H](CCC(N)=O)NC(=O)[C@H](CC(C)C)NC(=O)[C@H](Cc2c[nH]c3ccccc23)NC1=O [compound 54, Ac-M-S-D-C(3)-W-L-Q-W-N-C(3)-P-F-(hSer)-D-Lys(DOTA)-CONH2] (Ac-MSDCWLQWNCPF[hSer][dK](DOTA)-NH2; disulfide 4-10)
> 300 nM | CSCC[C@H](NC(C)=O)C(=O)N[C@@H](CO)C(=O)N[C@@H](CC(=O)O)C(=O)N[C@H]1CSSC[C@@H](C(=O)N2CCC[C@H]2C(=O)N[C@@H](Cc2ccccc2)C(=O)N[C@@H](CC(=O)O)C(=O)N[C@H](CCCCNC(=O)CN2CCN(CC(=O)O)CCN(CC(=O)O)CCN(CC(=O)O)CC2)C(N)=O)NC(=O)[C@H](CC(N)=O)NC(=O)[C@H](Cc2c[nH]c3ccccc23)NC(=O)[C@H](CCC(N)=O)NC(=O)[C@H](CC(C)C)NC(=O)[C@H](Cc2ccc(-c3ccccc3)cc2)NC1=O [compound 55, Ac-M-S-D-C(3)-(BIP)-L-Q-W-N-C(3)-P-F-D-D-Lys(DOTA)-CONH2] (Ac-MSDC[Bip]LQWNCPFD[dK](DOTA)-NH2; disulfide 4-10)
> 300 nM | CSCC[C@H](NC(C)=O)C(=O)N[C@@H](CO)C(=O)N[C@@H](CC(=O)O)C(=O)N[C@H]1CSSC[C@@H](C(=O)N2CCC[C@H]2C(=O)N[C@@H](Cc2ccccc2)C(=O)N[C@@H](CC(=O)O)C(=O)N[C@H](CCCCNC(=O)CN2CCN(CC(=O)O)CCN(CC(=O)O)CCN(CC(=O)O)CC2)C(N)=O)NC(=O)[C@H](CC(N)=O)NC(=O)[C@H](Cc2c[nH]c3ccccc23)NC(=O)[C@H](CCC(N)=O)NC(=O)[C@H](CC(C)C)NC(=O)[C@H](Cc2c[nH]c3ncccc23)NC1=O [compound 57, Ac-M-S-D-C(3)-(7Aza-W)-L-Q-W-N-C(3)-P-F-D-D-Lys(DOTA)-CONH2] (Ac-MSDC[Trp(7-aza)]LQWNCPFD[dK](DOTA)-NH2; disulfide 4-10)
> 300 nM | CSCC[C@H](NC(C)=O)C(=O)N[C@@H](CO)C(=O)N[C@@H](CC(=O)O)C(=O)N[C@H]1CSSC[C@@H](C(=O)N2CCC[C@H]2C(=O)N[C@@H](Cc2ccccc2)C(=O)N[C@@H](CC(=O)O)C(=O)N[C@H](CCCCNC(=O)CN2CCN(CC(=O)O)CCN(CC(=O)O)CCN(CC(=O)O)CC2)C(N)=O)NC(=O)[C@H](CC(N)=O)NC(=O)[C@H](Cc2ccc(-c3ccccc3)cc2)NC(=O)[C@H](CCC(N)=O)NC(=O)[C@H](CC(C)C)NC(=O)[C@H](Cc2c[nH]c3ccccc23)NC1=O [compound 60, Ac-M-S-D-C(3)-W-L-Q-(BIP)-N-C(3)-P-F-D-D-Lys(DOTA)-CONH2] (Ac-MSDCWLQ[Bip]NCPFD[dK](DOTA)-NH2; disulfide 4-10)
15.9 nM | CCCC[C@@H]1NC(=O)[C@H](Cc2c[nH]c3ccccc23)NC(=O)[C@@H](NC(=O)[C@H](CC(=O)O)NC(=O)[C@H](CO)NC(=O)[C@H](CCSC)NC(C)=O)CSSC[C@@H](C(=O)N2CCC[C@H]2C(=O)N[C@@H](Cc2ccccc2)C(=O)N[C@@H](CC(=O)O)C(=O)N[C@H](CCCCNC(=O)CN2CCN(CC(=O)O)CCN(CC(=O)O)CCN(CC(=O)O)CC2)C(N)=O)NC(=O)[C@H](CC(N)=O)NC(=O)[C@H](Cc2c[nH]c3ccccc23)NC(=O)[C@H](CCC(N)=O)NC1=O [compound 68, Ac-M-S-D-C(3)-W-(Nle)-Q-W-N-C(3)-P-F-D-D-Lys(DOTA)-CONH2] (Ac-MSDCW[Nle]QWNCPFD[dK](DOTA)-NH2; disulfide 4-10)
